Test results as given in patent publication US8895547B2, “Substituted phenyl-oxathiazine derivatives, method for producing them, drugs containing said compounds and the use thereof” (Sanofi, priority 2011, dated 2014).

Target: T1, human 11β-HSD1 (Homo sapiens, UniProt P28845)
T1 construct: host or cells: microsome fraction
Test: Enzymatic 11beta-HSD1 test (SPA-based detection)
Type: biochemical
Settings: human 11β-HSD1 microsome fraction, [1,2-3H]-cortisone, NADPH, 37° C. 1 hour
Method: Enzymatic 11beta-HSD1 test:
To measure the activity of the compounds, an SPA-based detection method (Solly et al. 2005) was employed. First of all, 20 μl of the human 11β-HSD1 microsome fraction (0.2 μg of protein), prepared in 50 mM HEPES, 0.1% BSA (w/v), were applied to a plate with 384 wells. The test compounds (0.09 μl) were applied to the assay plate in 100% DMSO. The reaction was started by addition of 20 μl of [1,2-^3H]-cortisone (0.1 μCi/[…]) in assay buffer comprising 25 mM HEPES, 100 mM KCl, 5 mM NaCl, 2 mM MgCl2 and 0.25 mM NADPH. The plate was agitated at 37° C. for 1 hour. At the same time, a stop solution comprising 20 mg/ml SPA-PVT beads, 1.6 mg/ml monoclonal cortisol antibody and 0.01 mM SSR110887 (inhibitor from the Biovitrium patent) in 50 mM HEPES, 1 M NaCl and 1 M KCl was stirred at room temperature. To stop the reaction, 25 μl of the stop solution were added to each well. The plate was agitated gently at room temperature for 1 further hour and then centrifuged at 500 gav for 1 minute, in order that the SPA beads could settle out. The plate was then read in a Wallac-1450-Microbeta unit with a standard SPA program (counting time 1 min/well). The comparative compound was glycyrrhetinic acid.
Protein and radioactive substrate were dispensed with a Biomek FX unit (Beckman Coulter) for handling liquids. The test compounds were added with a Cybi-Well equipped with a 90 nl pin tool (CyBio).
Lit.: Solly S, Mundt S S, Zokian H J, Juy-Fang Ding G, Hermanowski-Vosatka A, Strulovici B and Zheng W. High-throughput screening of 11β-Hydroxysteroid dehydrogenase type 1 in scintillation proximity format. Assay Drug Dev Technol 2005; 3:377-384.

T1 sequence (P28845 whole entry): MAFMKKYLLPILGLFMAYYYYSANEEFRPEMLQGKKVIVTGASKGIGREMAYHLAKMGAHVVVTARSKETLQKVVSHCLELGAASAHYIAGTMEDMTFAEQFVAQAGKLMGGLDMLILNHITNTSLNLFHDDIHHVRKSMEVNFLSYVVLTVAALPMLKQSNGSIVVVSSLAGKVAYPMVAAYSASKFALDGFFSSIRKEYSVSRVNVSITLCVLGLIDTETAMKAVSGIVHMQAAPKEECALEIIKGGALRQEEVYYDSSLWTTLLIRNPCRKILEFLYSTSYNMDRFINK

| IC50 [nM] | SMILES |
| --- | --- |
| 13 | COc1cccc(C2C(C)(C)OC(N[C@@H](CCO)c3ccccc3)=NS2(=O)=O)c1 (stereo partly drawn) [Example 37, (S)-3-[5-(3-Methoxy-phenyl)-6,6-dimethyl-4,4-dioxo-5,6-dihydro-4H-4lambda6-[1,4,3]oxathiazin-2-ylamino]-3-phenyl-propan-1-ol] |
| 17 | CC1(C)OC(N[C@@H](CCO)c2ccccc2)=NS(=O)(=O)C1(C)c1ccccc1 (stereo partly drawn) [Example 42, (S)-3-Phenyl-3-(5,6,6-trimethyl-4,4-dioxo-5-phenyl-5,6-dihydro-4H-4lambda6-[1,4,3]oxathiazin-2-ylamino)-propan-1-ol] |
| 13 | CC1(C)OC(N[C@@H](CCO)c2ccccc2F)=NS(=O)(=O)C1(C)c1cccc(N2CCN(S(C)(=O)=O)CC2)c1 (stereo partly drawn) [Example 44, (S)-3-(2-Fluorophenyl)-3-{5-[3-(4-methanesulfonyl-piperazin-1-yl)-phenyl]-5,6,6-trimethyl-4,4-dioxo-5,6-dihydro-4H-4lambda6-[1,4,3]oxathiazin-2-ylamino}-propan-1-ol] |
| 18 | CC1(C)OC(N[C@@H](CCO)c2ccccc2F)=NS(=O)(=O)C1(C)c1cccc(-c2cncnc2)c1 (stereo partly drawn) [Example 46, (S)-3-(2-Fluorophenyl)-3-[5,6,6-trimethyl-4,4-dioxo-5-(3-pyrimidin-5-yl-phenyl)-5,6-dihydro-4H-4lambda6-[1,4,3]oxathiazin-2-ylamino]-propan-1-ol] |
| 5 | CC1(C)OC(N[C@@H](CCO)c2ccccc2F)=NS(=O)(=O)C1(C)c1cccc(Br)c1 (stereo partly drawn) [Example 47, (S)-3-[5-(3-Bromophenyl)-5,6,6-trimethyl-4,4-dioxo-5,6-dihydro-4H-4lambda6-[1,4,3]oxathiazin-2-ylamino]-3-(2-fluorophenyl)-propan-1-ol] |
| 40 | CC1(C)OC(N[C@@H](CCO)c2ccccc2)=NS(=O)(=O)C1(F)c1cccc(Br)c1 (stereo partly drawn) [Example 50, (S)-3-[5-(3-Bromophenyl)-5-fluoro-6,6-dimethyl-4,4-dioxo-5,6-dihydro-4H-4lambda6-[1,4,3]oxathiazin-2-ylamino]-3-phenyl-propan-1-ol] |
| 15 | CC1(C)OC(N[C@@H](CCO)c2ccccc2F)=NS(=O)(=O)C1c1ccc(-c2ccccc2)cc1 (stereo partly drawn) [Example 51, (S)-3-(5-Biphenyl-4-yl-6,6-dimethyl-4,4-dioxo-5,6-dihydro-4H-4lambda6-[1,4,3]oxathiazin-2-ylamino)-3-(2-fluorophenyl)-propan-1-ol] |
| 8 | CC1(C)OC(N[C@@H](CCO)c2ccccc2F)=NS(=O)(=O)C1(C)c1ccc(-c2ccccc2)cc1 (stereo partly drawn) [Example 53, (S)-3-(5-Biphenyl-4-yl-5,6,6-trimethyl-4,4-dioxo-5,6-dihydro-4H-4lambda6-[1,4,3]oxathiazin-2-ylamino)-3-(2-fluorophenyl)-propan-1-ol] |
| 9 | CC1(C)OC(N[C@@H](CCO)c2ccccc2)=NS(=O)(=O)C1(C)c1ccc(-c2ccccc2)cc1 (stereo partly drawn) [Example 54, (S)-3-(5-Biphenyl-4-yl-5,6,6-trimethyl-4,4-dioxo-5,6-dihydro-4H-4lambda6-[1,4,3]oxathiazin-2-ylamino)-3-phenyl-propan-1-ol] |
| 28 | C[C@H](NC1=NS(=O)(=O)C(C)(c2ccc(-c3ccccc3)cc2)C(C)(C)O1)c1ccccc1F (stereo partly drawn) [Example 55, (5-Biphenyl-4-yl-5,6,6-trimethyl-4,4-dioxo-5,6-dihydro-4H-4lambda6-[1,4,3]oxathiazin-2-yl)-[(S)-1-(2-fluorophenyl)-ethyl]-amine] |
| 12 | Cc1ccccc1-c1ccc(C2C(C)(C)OC(N[C@@H](CCO)c3ccccc3F)=NS2(=O)=O)cc1 (stereo partly drawn) [Example 64, (S)-3-[6,6-Dimethyl-5-(2′-methyl-biphenyl-4-yl)-4,4-dioxo-5,6-dihydro-4H-4lambda6-[1,4,3]oxathiazin-2-ylamino]-3-(2-fluorophenyl)-propan-1-ol] |
| 21 | CC1(C)OC(N[C@@H](CCO)c2ccccc2F)=NS(=O)(=O)C1c1ccc(-c2ccc(F)cc2)cc1 (stereo partly drawn) [Example 65, (S)-3-[5-(4′-Fluorobiphenyl-4-yl)-6,6-dimethyl-4,4-dioxo-5,6-dihydro-4H-4lambda6-[1,4,3]oxathiazin-2-ylamino]-3-(2-fluorophenyl)-propan-1-ol] |
| 23 | COc1ccc(-c2ccc(C3C(C)(C)OC(N[C@@H](CCO)c4ccccc4F)=NS3(=O)=O)cc2)cc1 (stereo partly drawn) [Example 66, (S)-3-(2-Fluorophenyl)-3-[5-(4′-methoxy-biphenyl-4-yl)-6,6-dimethyl-4,4-dioxo-5,6-dihydro-4H-4lambda6-[1,4,3]oxathiazin-2-ylamino]-propan-1-ol] |
| 15 | CC1(C)OC(N[C@@H](CCO)c2ccccc2F)=NS(=O)(=O)C1c1cccc(-c2ccccc2)c1 (stereo partly drawn) [Example 67, (S)-3-(5-Biphenyl-3-yl-6,6-dimethyl-4,4-dioxo-5,6-dihydro-4H-4lambda6-[1,4,3]oxathiazin-2-ylamino)-3-(2-fluorophenyl)-propan-1-ol] |
| 34 | C[C@H](NC1=NS(=O)(=O)C(c2cccc(-c3ccccc3)c2)C(C)(C)O1)c1ccccc1F (stereo partly drawn) [Example 68, (5-Biphenyl-3-yl-6,6-dimethyl-4,4-dioxo-5,6-dihydro-4H-4lambda6-[1,4,3]oxathiazin-2-yl)-[(S)-1-(2-fluorophenyl)-ethyl]-amine] |
| 22 | CC1(C)OC(N[C@@H](CCO)c2ccccc2F)=NS(=O)(=O)C1(C)c1cccc(-c2ccc(F)cc2)c1 (stereo partly drawn) [Example 71, (S)-3-[5-(4′-Fluorobiphenyl-3-yl)-5,6,6-trimethyl-4,4-dioxo-5,6-dihydro-4H-4lambda6-[1,4,3]oxathiazin-2-ylamino]-3-(2-fluorophenyl)-propan-1-ol] |
| 46 | CC1(C)OC(N[C@@H](CCO)c2ccccc2)=NS(=O)(=O)C1(C)c1cccc(-c2ccccc2)c1 (stereo partly drawn) [Example 72, (S)-3-(5-Biphenyl-3-yl-5,6,6-trimethyl-4,4-dioxo-5,6-dihydro-4H-4lambda6-[1,4,3]oxathiazin-2-ylamino)-3-phenyl-propan-1-ol] |
| 28 | C[C@H](NC1=NS(=O)(=O)C(C)(c2cccc(-c3ccccc3)c2)C(C)(C)O1)c1ccccc1F (stereo partly drawn) [Example 73, (5-Biphenyl-3-yl-5,6,6-trimethyl-4,4-dioxo-5,6-dihydro-4H-4lambda6-[1,4,3]oxathiazin-2-yl)-[(S)-1-(2-fluorophenyl)-ethyl]-amine] |
| 332 | O=S1(=O)N=C(N[C@@H](CCO)c2ccccc2F)OC2(COC2)C1c1ccc(-c2ccccc2)cc1 (stereo partly drawn) [Example 76, (S)-3-(9-Biphenyl-4-yl-8,8-dioxo-2,5-dioxa-8lambda6-thia-7-aza-spiro[3.5]non-6-en-6-ylamino)-3-(2-fluorophenyl)-propan-1-ol] |
| 26 | O=S1(=O)N=C(N[C@@H](CCO)c2ccccc2F)OC2(CCC2)C1c1ccc(-c2ccccc2)cc1 (stereo partly drawn) [Example 77, (S)-3-(9-Biphenyl-4-yl-8,8-dioxo-5-oxa-8lambda6-thia-7-aza-spiro[3.5]non-6-en-6-ylamino)-3-(2-fluorophenyl)-propan-1-ol] |
| 35 | O=S1(=O)N=C(N[C@@H](CCO)c2ccccc2F)OC2(CCCC2)C1c1ccc(-c2ccccc2)cc1 (stereo partly drawn) [Example 78, (S)-3-(10-Biphenyl-4-yl-9,9-dioxo-6-oxa-9lambda6-thia-8-aza-spiro[4.5]dec-7-en-7-ylamino)-3-(2-fluorophenyl)-propan-1-ol] |
| 8 | Cc1ccccc1-c1ccc(C2(C)C(C)(C)OC(N[C@@H](CCO)c3ccccc3F)=NS2(=O)=O)cc1 (stereo partly drawn) [Example 79, (S)-3-(2-Fluorophenyl)-3-[5,6,6-trimethyl-5-(2′-methyl-biphenyl-4-yl)-4,4-dioxo-5,6-dihydro-4H-4lambda6-[1,4,3]oxathiazin-2-ylamino]-propan-1-ol] |
| 7 | CC1(C)OC(N[C@@H](CCO)c2ccccc2F)=NS(=O)(=O)C1(C)c1ccc(-c2ccc(F)cc2)cc1 (stereo partly drawn) [Example 80, (S)-3-[5-(4′-Fluorobiphenyl-4-yl)-5,6,6-trimethyl-4,4-dioxo-5,6-dihydro-4H-4lambda6-[1,4,3]oxathiazin-2-ylamino]-3-(2-fluorophenyl)-propan-1-ol] |
| 10 | COc1ccc(-c2ccc(C3(C)C(C)(C)OC(N[C@@H](CCO)c4ccccc4F)=NS3(=O)=O)cc2)cc1 (stereo partly drawn) [Example 81, (S)-3-(2-Fluorophenyl)-3-[5-(4′-methoxy-biphenyl-4-yl)-5,6,6-trimethyl-4,4-dioxo-5,6-dihydro-4H-4lambda6-[1,4,3]oxathiazin-2-ylamino]-propan-1-ol] |
| 23 | CC1(C)OC(NC(CCO)c2cccc(F)c2F)=NS(=O)(=O)C1c1ccc(-c2ccccc2)cc1 (centres unmarked) [Example 82, 3-(5-Biphenyl-4-yl-6,6-dimethyl-4,4-dioxo-5,6-dihydro-4H-4lambda6-[1,4,3]oxathiazin-2-ylamino)-3-(2,3-difluorophenyl)-propan-1-ol] |
| 17 | CC1(C)OC(N[C@@H](CCO)c2ccccc2Cl)=NS(=O)(=O)C1c1ccc(-c2ccccc2)cc1 (stereo partly drawn) [Example 83, (S)-3-(5-Biphenyl-4-yl-6,6-dimethyl-4,4-dioxo-5,6-dihydro-4H-4lambda6-[1,4,3]oxathiazin-2-ylamino)-3-(2-chloro-phenyl)-propan-1-ol] |
